≈ marks a conversion by molar mass, not a printed value.
Columns and labels:
Assay in all cases: ≥ marks a high value that may be exact or a test limit, other limits are often not marked, values filed in µg/mL are converted to µM
[1] = tested on: Pseudomonas aeruginosa 253
[2] = tested on: Pseudomonas aeruginosa 919
[3] = tested on: Pseudomonas aeruginosa 910
[4] = tested on: Pseudomonas aeruginosa PAO1
[5] = tested on: Escherichia coli ATCC 25922
[6] = tested on: Escherichia coli ATCC 11775
[7] = tested on: Escherichia coli ATCC 35218
[8] = tested on: Escherichia coli ATCC 43827
Escherichia coli ESBL = tested on: Escherichia coli ESBL
Escherichia coli ESBL 4 = tested on: Escherichia coli ESBL 4
[9] = tested on: Pseudomonas aeruginosa ATCC 27853
[10] = tested on: Staphylococcus epidermidis ATCC 12228
[11] = tested on: Staphylococcus aureus ATCC 25923
[12] = tested on: Staphylococcus aureus ATCC 29213
[13] = tested on: Streptococcus agalactiae CICC 10465
Escherichia coli 078 = tested on: Escherichia coli 078
[14] = tested on: Streptococcus thermophilus YM-C
[15] = tested on: Salmonella enterica subsp. enterica serovar Typhimurium ATCC 14028
[16] = tested on: Salmonella enterica subsp. enterica serovar Typhimurium C77-31
Escherichia coli UB1005 = tested on: Escherichia coli UB1005
Streptococcus agalactiae = tested on: Streptococcus agalactiae
[17] = tested on: Lacticaseibacillus rhamnosus 7469
[18] = tested on: Salmonella enterica subsp. enterica serovar Pullorum ATCC 7913
[19] = tested on: Pseudomonas aeruginosa Ps4
[20] = tested on: Staphylococcus aureus NBRC 13276
[21] = tested on: Pseudomonas aeruginosa NBRC 13275
[22] = tested on: Escherichia coli DH5alpha
[23] = tested on: Salmonella enterica serovar Typhimurium
[24] = tested on: Pseudomonas aeruginosa H103
[25] = tested on: Enterococcus faecalis ATCC 29212
[26] = tested on: Staphylococcus epidermidis
Candida albicans = tested on: Candida albicans
[27] = tested on: Candida tropicalis CGMCC 2.1975
[28] = tested on: Candida parapsilosis CGMCC 2.3989
[29] = tested on: Lactiplantibacillus plantarum 8014
[30] = tested on: Candida albicans CGMCC 2.2086

SMILES: CC[C@H](C)[C@H](NC(=O)[C@@H](N)Cc1ccccc1)C(=O)N[C@@H](CCCCN)C(=O)N[C@@H](Cc1c[nH]c2ccccc12)C(=O)N[C@@H](CCCN=C(N)N)C(=O)N[C@@H](CO)C(=O)N[C@@H](CCCN=C(N)N)C(=O)N[C@@H](Cc1c[nH]c2ccccc12)C(=O)N[C@@H](Cc1c[nH]c2ccccc12)C(=O)N[C@@H](CCCCN)C(=O)N[C@@H](CCCCN)C(=O)N[C@@H](CCCN=C(N)N)C(=O)N[C@H](C(N)=O)[C@@H](C)O [FIKWRSRWWKKRT]
- MIC [1]: 16 µM (≈ 30 µg/mL)
- MIC [2]: ≥ 32 µM
- MIC [3]: 8 µM (≈ 15 µg/mL)
- MIC [4]: 4 µM (≈ 7.51 µg/mL)

SMILES: CC[C@H](C)[C@H](NC(=O)[C@H](Cc1ccc(O)cc1)NC(=O)[C@H](CCC(N)=O)NC(=O)[C@H](CC(C)C)NC(=O)[C@H](C)NC(=O)[C@H](CCCCN)NC(=O)[C@H](CCCCN)NC(=O)[C@H](CCSC)NC(=O)[C@@H](N)CCCCN)C(=O)N[C@@H](CCCCN)C(=O)N[C@@H](CC(C)C)C(=O)N[C@@H](CC(C)C)C(=O)N[C@@H](CCCCN)C(=O)N[C@@H](CCC(=O)O)C(N)=O [KMKKALQYIKLLKE]
- MIC [5]: 100 µM (≈ 173 µg/mL)
- MIC [6]: ≥ 100 µM
- MIC [7]: 25 µM (≈ 43.3 µg/mL)
- MIC [8]: 25 µM (≈ 43.3 µg/mL)
- MIC (Escherichia coli ESBL): ≥ 100 µM
- MIC (Escherichia coli ESBL 4): ≥ 100 µM
- MIC [9]: > 100 µM

SMILES: CC[C@H](C)[C@H](NC(=O)[C@H](CC(C)C)NC(=O)[C@@H](NC(=O)[C@@H](N)CC(=O)O)[C@@H](C)CC)C(=O)N[C@H](C(=O)N[C@H](C(=O)NCC(=O)NCC(=O)N[C@@H](CCCN=C(N)N)C(=O)N[C@@H](CCCN=C(N)N)C(N)=O)C(C)C)[C@@H](C)CC [DILIIVGGRR]
- MIC [5]: > 64 µM
- MIC [10]: > 64 µM
- MIC [11]: > 64 µM
- MIC [12]: > 64 µM
- MIC [13]: ≥ 64 µM
- MIC (Escherichia coli 078): ≥ 64 µM
- MIC [14]: ≥ 64 µM
- MIC [15]: > 64 µM
- MIC [16]: ≥ 64 µM
- MIC (Escherichia coli UB1005): ≥ 64 µM
- MIC (Streptococcus agalactiae): ≥ 64 µM
- MIC [17]: ≥ 64 µM
- MIC [9]: > 64 µM
- MIC [18]: ≥ 64 µM

SMILES: CC(C)C[C@H](NC(=O)[C@H](CCCN=C(N)N)NC(=O)[C@H](CC(C)C)NC(=O)[C@H](CC(N)=O)NC(=O)[C@H](CCCN=C(N)N)NC(=O)[C@H](CCC(N)=O)NC(=O)[C@H](Cc1c[nH]c2ccccc12)NC(=O)[C@@H](N)Cc1ccccc1)C(=O)N[C@@H](CCCN=C(N)N)C(=O)N[C@@H](CCCN=C(N)N)C(N)=O [FWQRNLRLRR]
- MIC [19]: ≥ 173 µM

SMILES: CC(=O)N[C@@H](C)C(=O)N[C@@H](CCCCN)C(=O)N[C@@H](CCCCN)C(=O)N[C@@H](Cc1ccccc1)C(=O)NCC(=O)N[C@@H](CCCCN)C(=O)N[C@@H](C)C(=O)N[C@@H](Cc1ccccc1)C(=O)N[C@H](C(N)=O)C(C)C [AKKFGKAFV]
- MIC [20]: ≥ 400 µM
- MIC [21]: ≥ 200 µM
- MIC [22]: ≥ 200 µM

SMILES: CC[C@H](C)[C@H](NC(=O)[C@H](Cc1ccc(O)cc1)NC(=O)[C@H](CCC(N)=O)NC(=O)[C@H](CC(C)C)NC(=O)[C@H](C)NC(=O)[C@H](CCCCN)NC(=O)[C@H](CCCCN)NC(=O)[C@H](CCSC)NC(=O)[C@H](CCCCN)NC(=O)[C@H](CCCCN)NC(=O)[C@H](CCCCN)NC(=O)[C@@H](N)CCCN=C(N)N)C(=O)N[C@@H](CCCCN)C(=O)N[C@@H](CC(C)C)C(=O)N[C@@H](CC(C)C)C(=O)N[C@@H](CCCCN)C(=O)N[C@@H](CCC(=O)O)C(N)=O [RKKKMKKALQYIKLLKE]
- MIC [5]: 25 µM (≈ 53.6 µg/mL)
- MIC [6]: ≥ 100 µM
- MIC [7]: 6 µM (≈ 12.9 µg/mL)
- MIC [8]: 3 µM (≈ 6.44 µg/mL)
- MIC (Escherichia coli ESBL): 12.5 µM (≈ 26.8 µg/mL)
- MIC (Escherichia coli ESBL 4): ≥ 100 µM
- MIC [9]: 100 µM (≈ 215 µg/mL)

SMILES: CC[C@H](C)[C@H](NC(=O)[C@H](CC(C)C)NC(=O)[C@@H](NC(=O)[C@@H](N)CC(=O)O)[C@@H](C)CC)C(=O)N[C@H](C(=O)N[C@H](C(=O)NCC(=O)NCC(=O)N[C@@H](CCCCN)C(=O)N[C@@H](CCCN=C(N)N)C(=O)N[C@@H](CCCN=C(N)N)C(=O)N[C@@H](CCCCN)C(=O)N[C@@H](CCCCN)C(=O)N[C@@H](CCCN=C(N)N)C(=O)N[C@@H](CCCN=C(N)N)C(=O)N[C@@H](CCCN=C(N)N)C(N)=O)C(C)C)[C@@H](C)CC [DILIIVGGKRRKKRRR]
- MIC [5]: 4 µM (≈ 7.85 µg/mL)
- MIC [10]: 8 µM (≈ 15.7 µg/mL)
- MIC [11]: 4 µM (≈ 7.85 µg/mL)
- MIC [12]: 4 µM (≈ 7.85 µg/mL)
- MIC [13]: 2 µM (≈ 3.93 µg/mL)
- MIC (Escherichia coli 078): 8 µM (≈ 15.7 µg/mL)
- MIC [14]: ≥ 64 µM
- MIC [15]: 8 µM (≈ 15.7 µg/mL)
- MIC [16]: 8 µM (≈ 15.7 µg/mL)
- MIC (Escherichia coli UB1005): 4 µM (≈ 7.85 µg/mL)
- MIC (Streptococcus agalactiae): 4 µM (≈ 7.85 µg/mL)
- MIC [17]: ≥ 64 µM
- MIC [9]: 4 µM (≈ 7.85 µg/mL)
- MIC [18]: 8 µM (≈ 15.7 µg/mL)

SMILES: CC[C@H](C)[C@H](NC(=O)[C@H](CCCN=C(N)N)NC(=O)[C@H](C)NC(=O)[C@H](CCCN=C(N)N)NC(=O)[C@@H](N)CCCN=C(N)N)C(=O)N[C@H](C(=O)N[C@H](C(=O)N[C@H](C(=O)N[C@@H](CCCN=C(N)N)C(=O)N[C@H](C(=O)N[C@@H](C)C(=O)N[C@@H](CCCN=C(N)N)C(N)=O)C(C)C)[C@@H](C)CC)C(C)C)C(C)C [RRARIVVIRVAR]
- MIC [23]: 5.46 µM (≈ 7.99 µg/mL)
- MIC [11]: 10.9 µM (≈ 16 µg/mL)
- MIC [24]: 5.46 µM (≈ 7.99 µg/mL)
- MIC [25]: 10.9 µM (≈ 16 µg/mL)
- MIC [1]: ≥ 32 µM
- MIC [2]: 16 µM (≈ 23.4 µg/mL)
- MIC [3]: ≥ 32 µM
- MIC [4]: 32 µM (≈ 46.8 µg/mL)
- MIC [26]: 1.37 µM (≈ 2 µg/mL)
- MIC (Escherichia coli UB1005): 2.73 µM (≈ 4 µg/mL)
- MIC (Candida albicans): 5.46 µM (≈ 7.99 µg/mL)

SMILES: CC[C@H](C)[C@H](N)C(=O)N[C@@H](Cc1cnc[nH]1)C(=O)N[C@@H](Cc1cnc[nH]1)C(=O)N[C@H](C(=O)N[C@@H](Cc1cnc[nH]1)C(=O)N[C@@H](Cc1cnc[nH]1)C(=O)N[C@H](C(=O)N[C@H](C(=O)N[C@@H](Cc1cnc[nH]1)C(=O)N[C@@H](Cc1cnc[nH]1)C(=O)N[C@H](C(=O)N[C@@H](Cc1cnc[nH]1)C(=O)N[C@@H](Cc1cnc[nH]1)C(=O)N[C@H](C(=O)N[C@H](C(=O)N[C@@H](Cc1cnc[nH]1)C(=O)N[C@@H](Cc1cnc[nH]1)C(=O)N[C@H](C(=O)N[C@@H](Cc1cnc[nH]1)C(=O)N[C@@H](Cc1cnc[nH]1)C(=O)N[C@H](C(N)=O)[C@@H](C)CC)[C@@H](C)CC)[C@@H](C)CC)[C@@H](C)CC)[C@@H](C)CC)[C@@H](C)CC)[C@@H](C)CC)[C@@H](C)CC [IHHIHHIIHHIHHIIHHIHHI]
- MIC [27]: 1 µM (≈ 2.68 µg/mL)
- MIC [10]: > 64 µM
- MIC [11]: > 64 µM
- MIC [12]: > 64 µM
- MIC [28]: 2 µM (≈ 5.36 µg/mL)
- MIC [29]: ≥ 64 µM
- MIC [30]: 2 µM (≈ 5.36 µg/mL)
- MIC [17]: ≥ 64 µM

SMILES: CC[C@H](C)[C@H](NC(=O)[C@H](CC(N)=O)NC(=O)[C@H](CCCN=C(N)N)NC(=O)[C@H](Cc1c[nH]c2ccccc12)NC(=O)[C@@H](N)Cc1ccccc1)C(=O)N[C@@H](CCCN=C(N)N)C(=O)N[C@@H](CCCCN)C(=O)N[C@H](C(=O)N[C@@H](CCCN=C(N)N)C(N)=O)C(C)C [FWRNIRKVR]
- MIC [19]: ≥ 196 µM
